From patent publication US20230390243A1, “Compositions and Uses Thereof” (Purposeful IKE, priority 2020, published 2023)
Values joined by “and” are separate entries in the source; they are usually repeats but may differ in a detail not shown here. Equal entries are not always repeated.

What was measured:
Assay type in all cases: in vivo
Fmr1 KO mice [1] = assay: Test of daily living (marble burying / nesting); design: scale not given here; conditions: for Mean 2 (group mean), Test of daily living: KO group mean, n 10
Protocol: (§1) Fmr1 KO mice backcrossed to the FVB strain and WT littermates were used during experiments. TransnetXY Automated Genotyping (www.transnetyx.com/). TRANSNETYX, INC., 8110 Cordova Rd. Suite 119, Cordova, TN 38016, USA was used for genotyping. The animals were pretreated for 14 days. The active ingredients of Sumatriptan and Ergoloid were in a water carrier, whereas oxitriptan was in a methanol carrier.
(§2) The mice were housed in plastic cages (35×30×12 cm), 5 in each. The room temperature (21±2° C.),relative humidity (55±5%), a 12-h light-dark cycle (lights on 7 a.m.-7 p.m.) and air exchange (16 times per h) were automatically controlled. The animals had free access to commercial food pellets and water. Testing was conducted during the light phase. Ten mice per treatment group were used for the AGS experiments. Experiments were conducted in line with the requirements of the UK Animals (Scientific Procedures) Act, 1986.
(§3) All experiments were conducted with the experimenter blind to genotype and drug treatment. Separate investigators prepared and coded dosing solutions, allocated the mice to the study treatment groups, dosed the animals, and collected the Audiogenic Seizure data.
(§4) Behavior testing was conducted at 2 weeks. The behavioral tests were as follows: 1. Hyperactivity: Open field; 2. Stereotypy: Self-grooming; 3. Sociability: Three chamber partition test; 4. Memory and Learning: Novel Object Recognition; 5. Anxiety: hyponeophagia; and 6. Test of daily living: marble burying
For test of daily living, nesting was assessed as nest building is an innate behavior in rodents, even when raised in laboratory settings. Synthetic and/or natural materials (such as twine, tissue, cotton, paper, and hay) are provided as a gauge of their overall well-being and as an ancillary assessment to predict the possible decline in cognition. Typically, changes in nesting behaviors, such as failure to create a nest, indicate a change in health or welfare. In addition, nesting behavior is sensitive to many environmental and physiological challenges, as well as many genetic mutations underlying pathological disease states (Gaskill 2013).
(§5) The treatment of the mice with OX (Oxitriptan), SU (Sumatriptan), ER (Ergoloid mesylates) were according to the matrix shown below in Table 1.

Fmr1 KO mice [2] = assay: Anxiety: hyponeophagia test; design: unit not given here; conditions: for Mean 2 (group mean), Hyponeophagia: KO group mean, n 10
Protocol: as §1, §2, §3, §4
For anxiety a hyponeophagia test was conducted. Mice and rats cannot vomit, due to the tightness of the cardiac sphincter of the stomach, so to overcome the problem of potential food toxicity they have evolved a strategy of first ingesting only very small amounts of novel substances. The amounts ingested then gradually increase until the animal has determined whether the substance is safe and nutritious. So the old rat-catchers would first put a palatable substance such as oatmeal, which was to be the vehicle for the toxin, in the infested area (Deacon 2011).
as §5

Fmr1 KO mice [3] = assay: Memory and learning: Novel Object Recognition (NOR); design: unit not given here
Protocol: as §1, §2, §3, §4
For memory and learning, a novel object recognition (NOR) task was used to evaluate the rodents' ability to recognize a novel object in the environment. […] The task procedure consists of three phases: habituation, familiarization, and test phase (Antunes 2012).
as §5

Fmr1 KO mice [4] = assay: Sociability: three chamber partition test; design: unit not given here
Protocol: as §1, §2, §3, §4
For sociability a three chamber partition test was utilized. The three-chamber paradigm test known as Crawley's sociability and preference for social novelty protocol has previously been successfully employed to study social affiliation and social memory in several inbred and mutant mouse lines. The main principle of the test was based on the free choice by a subject mouse to spend time in any of three box's compartments during two experimental sessions, including indirect contact with one or two mice with which it was unfamiliar (Kaidanovich-Beilin 2011).
as §5

Fmr1 KO mice [5] = assay: Stereotypy: self-grooming; design: unit not given here
Protocol: as §1, §2, §3, §4
For stereotypy, self-grooming was assessed. Self-grooming in animals is an innate behaviour that is involved in hygiene maintenance and other physiologically important processes, including thermoregulation, social communication and de-arousal. It is one of the most frequently observed behaviours in awake rodents and has a patterned, sequential organization with characteristic cephalocaudal progression (Kalueff 2016).
as §5

Fmr1 KO mice [6] = assay: Open field test (hyperactivity); design: unit not given here; conditions: for Mean 2 (group mean), Open Field: KO group mean, n 10
Protocol: as §1, §2, §3, §4
For hyperactivity, the open field test (OFT) is a common measure of exploratory behavior and general activity in both mice and rats, where both the quality and quantity of the activity can be measured. Principally, the open field (OF) is an enclosure, generally square, rectangular, or circular in shape with surrounding walls that prevent escape. The OFT is also commonly used as a mechanism to assess the sedative, toxic, or stimulant effects of compounds (Gould 2009).
as §5

[7] = Dunnett's test against KO-V, Sumatriptan 20, Oxitriptan 40, Ergoloid 4 mg/kg, Ergoloid 2 + Oxitriptan 40 mg/kg
[8] = Dunnett's test against WT-V, Sumatriptan 20, Oxitriptan 40, Ergoloid 4 mg/kg, Column F Ergoloid 2 + Sumatriptan 10, Column G Ergoloid 2 + Oxitriptan 40 mg/kg
[9] = Fmr1 KO mice, Oxitriptan 40 mg/kg, individual animals
[10] = Fmr1 KO mice, Oxitriptan 40 mg/kg, F column, individual animals
[11] = N_ values, Dunnett's test against N_WT-V, Sumatriptan 20, Oxitriptan 40, Ergoloid 4 mg/kg, Ergoloid 2 + Sumatriptan 10, Ergoloid 2 + Oxitriptan 40 mg/kg

N[C@@H](Cc1c[nH]c2ccc(O)cc12)C(=O)O [Oxitriptan]
Mean Diff. (KO-V vs. group), Test of daily living (Fmr1 KO mice [1]; [7]): −3.700 | Mean Diff. (WT-V vs. group), Test of daily living (Fmr1 KO mice [1]; [8]): −0.1000 | Tests of daily living, KO-Oxitriptan (Fmr1 KO mice [1]; [9]): 5 (9×) and 4 | Mean 2 (group mean), Test of daily living (Fmr1 KO mice [1]; table against KO-V (mean 1.200), doses as E25): 4.800 | Mean 2 (group mean), Test of daily living (Fmr1 KO mice [1]; table against WT-V (mean 4.800), doses as E7): 4.900 | Mean Diff. (KO-V vs. group), Hyponeophagia (Fmr1 KO mice [2]; [7]): 91.10 | Mean Diff. (WT-V vs. group), Hyponeophagia (Fmr1 KO mice [2]; [8]): −0.7000 | Hyponeophagia, KO-Oxitriptan (Fmr1 KO mice [2]; [9]): 151 and 145 and 150 and 140 (2×) and 147 and 143 and 152 and 148 and 146 | Mean 2 (group mean), Hyponeophagia (Fmr1 KO mice [2]; table against KO-V (mean 237.3), doses as E22): 146.2 | Mean 2 (group mean), Hyponeophagia (Fmr1 KO mice [2]; table against WT-V (mean 145.5), doses as E4): 146.2 | Novel Object Recognition, F_KO-Oxitriptan (Fmr1 KO mice [3]; [10]): 6 (4×) and 5 (3×) and 9 (2×) and 8 (2×) | Novel Object Recognition, N_KO-Oxitriptan (Fmr1 KO mice [3]; [9]): 10 (4×) and 12 and 14 and 8 (2×) and 15 and 13 and 9 | Mean 2 (N_ group mean), NOR (Fmr1 KO mice [3]; N_ values, KO group mean, table against F_KO-V, doses as E31): 10.82 | Mean 2 (group mean), NOR (Fmr1 KO mice [3]; N_ values, KO group mean, table against N_WT-V (mean 13.90), doses as E10): 10.82 | Mean Diff. (N_WT-V vs. group), NOR (Fmr1 KO mice [3]; [11]): 3.082 | Mean 2 (F_ group mean), Sociability (Fmr1 KO mice [4]; F_ values, KO group mean, table against F_KO-V, doses as E34): 52.10 | Mean Diff. (F_KO-V vs. F_ group), Sociability (Fmr1 KO mice [4]; F_ values, Dunnett's test against F_KO-V, Sumatriptan 20, Oxitriptan 40, Ergoloid 4 mg/kg, Ergoloid 2 + Oxitriptan 40 mg/kg): 29.50 | Sociability, F_KO-Oxitriptan (Fmr1 KO mice [4]; [10]): 54 and 52 (2×) and 50 (2×) and 53 (2×) and 51 and 55 | Sociability, N_KO-Oxitriptan (Fmr1 KO mice [4]; [9]): 104 and 98 (2×) and 97 (2×) and 100 (2×) and 99 (2×) and 96 | Mean 2 (N_ group mean), Sociability (Fmr1 KO mice [4]; N_ values, KO group mean, table against F_KO-V, doses as E37): 98.80 | Mean 2 (group mean), Sociability (Fmr1 KO mice [4]; N_ values, KO group mean, table against N_WT-V (mean 99.10), doses as E13): 96.80 | Mean Diff. (N_WT-V vs. group), Sociability (Fmr1 KO mice [4]; [11]): 0.3000 | Mean Diff. (KO-V vs. group), Stereotypy (Fmr1 KO mice [5]; [7]): 10.10 | Mean 2 (group mean), Stereotypy (Fmr1 KO mice [5]; KO group mean, n 10, table against KO-V (mean 45.40), doses as E19): 35.30 | Data table Stereotypy (individual animals) (Fmr1 KO mice [5]; KO mice, one value per animal, Sumatriptan 20, Oxitriptan 40, Ergoloid 4 mg/kg, Ergoloid 2 + Oxitriptan 40 mg/kg): 34 and 37 (2×) and 40 and 36 and 38 (2×) and 33 and 31 and 29 | Mean Diff. (KO-V vs. group), Open Field (Fmr1 KO mice [6]; Dunnett's test against KO-V, Sumatriptan 20, Oxitriptan 80, Ergoloid 4 mg/kg, Ergoloid 2 + Oxitriptan 40 mg/kg): 3543 | Mean 2 (group mean), Open Field (Fmr1 KO mice [6]; table against KO-V (mean 8263), doses as E16): 4720 | Mean 2 (group mean), Open Field (Fmr1 KO mice [6]; table against WT-V (mean 4207), doses as E1): 4720
